The test system of one test is MYB mRNA. Briefly: RT-qPCR splicing assay, MYB canonical junction (CJ) and alternative junction (AJ) mRNA. In kind it is cell-based, human. Particulars: Homo sapiens; for AC50: increase in MYB alternative junction (AJ) mRNA, read-out: MYB AJ AC50. An outline of the steps: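 A673 or K562 cells were treated for 24 h at 37 °C with an 11-point 3-fold compound dilution series (top final concentration 10 uM, DMSO ≤0.25%). After lysis, one-step TaqMan RT-qPCR quantified junction transcripts, normalized to PPIA for A673 or to GAPDH/GUSB for K562.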

In the next test the test system is MYB. Briefly: HiBiT protein abundance assay, MYB HiBiT K562 cell line. Particulars: HiBiT lytic detection, modified K562 cells, 24 hours, top dose 10 μM; read-out: Effect on protein abundance, MYB (IC50). In kind it is cell-based, human. Summed up:
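Endogenous targets in K562 knock-in lines carried a HiBiT tag and were treated for 24 h at 37 °C with 10-point 3-fold dilutions (top 10 μM final, DMSO ≤0.25%). Abundance was read as lytic Nano-Glo HiBiT luminescence. IC50 came from a four-parameter logistic fit of normalized response.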

Test [1] concerns K562 (human chronic myelogenous leukemia) cells. Briefly: Cell Titer Glo 2.0 cell viability assay. In kind it is cell-based. Conditions: Homo sapiens, K562, 72 h, K562 cells, 72 hours, Cell Titer Glo 2.0; read-out: K562 GI50.
Description: Compounds described herein were screened for toxicity in K562 (human chronic myelogenous leukemia) cells using a Cell Titer Glo 2.0 assay.
Cells were plated at 500 cells/well (K562 cells) in 45 μL of IMDM supplemented with 1000 FBS in a 384-well opaque plate. Wells containing only medium were used as a blank control. Test compounds (e.g., compounds ofFormula (I), (II), (III), (IV), (V), (VI), (VII), (VIII), and (IX)) were first serially diluted in DMSO then diluted 1:100 with IMDM+10% FBS. The final concentration of DMSO was 0.1% in each well. The cells were incubated for 72 hours at 37° C. and 500 CO2 before assaying with Cell Titer Glo 2.0 reagent.
[2] abbreviates: canonical junction qPCR panel, Table 5, read-out: MYB (decrease in CJ mRNA levels, IC50).
[3] abbreviates: decrease in MYB canonical junction (CJ) mRNA, RT-qPCR, read-out: MYB CJ IC50.

We go through five compounds from US20250332173A1, “COMPOUNDS AND METHODS FOR MODULATING NUCLEIC ACID SPLICING” (REMIX THERAPEUTICS INC., priority 2021, published 2025).

The structures appear in SMILES notation. pIC50: −log10 of the molar value. Like-named read-outs stand apart in the source and are kept apart here. A value given as a limit tells only on which side of the number the result lay.

Consider `Cc1cn2nc(-n3cnc4ccc(N5CCNCC5)cc4c3=O)cc(C)c2n1` [Compound 2201], for which the pIC50 in the test on MYB mRNA (setting [2]), with MYB mRNA (setting [3]) and with MYB was less than 5.00 in each case. Further, the AC50 in the test on MYB mRNA (RT-qPCR) was greater than 10 µM. Further, in test [1], the GI50 was greater than 10 µM.

On to `Cc1cn2nc(-n3cnc4ccc(N5CCN(C)CC5)cc4c3=O)cc(C)c2n1` [Compound 2202], for which the negative-log IC50 (pIC50) in the test with MYB mRNA (setting [2]), in the test with MYB mRNA (setting [3]) and in the test on MYB was 5.00 to 6.00 throughout. Moreover, the AC50 with MYB mRNA (RT-qPCR) was in the range of 1 to 10 µM. Besides, the GI50 in test [1] lay in the range of 1 to 10 µM.

Take `Cc1cc(-c2ccc3c(=O)[nH]c(N4CCNCC4)nc3c2)cc2cn(C)nc12` [Compound 2211]: the pIC50 with MYB mRNA (setting [2]), in the test on MYB mRNA (setting [3]) and in the test with MYB was less than 5.00 in each case. In addition, the concentration at half-maximal activity (AC50) in the test on MYB mRNA (RT-qPCR) is greater than 10 µM. In addition, the concentration for 50% growth inhibition (GI50) in test [1] is greater than 10 µM.

Take `Cc1cc(-c2ccc3c(=O)[nH]c(N4CCN(C)CC4)nc3c2)cc2cn(C)nc12` [Compound 2212]: the pIC50 was 5.00 to 6.00 in the test with MYB mRNA (setting [2]), 5.00 to 6.00 in the test on MYB mRNA (setting [3]) and less than 5.00 in the test with MYB. For the same compound, the AC50 with MYB mRNA (RT-qPCR) lay in the range of 1 to 10 µM. For the same compound, the GI50 in test [1] fell in the range of 1 to 10 µM.

For `Cc1cc(-c2nc3cc(N4CCNCC4)ccc3c(=O)[nH]2)cc2cn(C)nc12` [Compound 2213], the pIC50 in the test on MYB mRNA (setting [2]), in the test with MYB mRNA (setting [3]) and with MYB was less than 5.00 each time. Also, the AC50 with MYB mRNA (RT-qPCR) is greater than 10 µM. For the same compound, the GI50 in test [1] lay in the range of 1 to 10 µM.
